# Test results published in PubChem BioAssay (NCI).
#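 48-hour exposure; five concentrations; linearly interpolated endpoints. TGI is the concentration that stops growth completely.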 *1 amine or outer side, *2 acyl side, *3 side chain or, on linkers, in order; H or OH if unused. Where a SMILES comes first, the peptide text is derived from it. [ ]: non-standard residue; d: D form. The star is where a group is joined. ξ: configuration not given here. X27 = O=C([C@H]1CCC[C@H]1N[*:1])[*:2]; ξW = NC(Cc1c[nH]c2ccccc12)C(=O)O; ξF = NC(Cc1ccccc1)C(=O)O; Boc = CC(C)(C)OC(=O)*; ξK = NCCCCC(N)C(=O)O; ξT = CC(O)C(N)C(=O)O; tBu = CC(C)(C)*
# Experiments:
# Assay in all cases: NCI anticancer screen, dose series, 48 h
# [1] = tested on: COLO 205 colon
# [2] = tested on: HCC-2998 colon
# [3] = tested on: HL-60(TB) leukemia
# [4] = tested on: HOP-92 NSCLC
# [5] = tested on: HT29 colon
# [6] = tested on: LOX IMVI melanoma
# [7] = tested on: MDA-MB-231 breast
# [8] = tested on: MDA-MB-435
# [9] = tested on: SK-MEL-5 melanoma
# [10] = tested on: SNB-19 CNS
# [11] = tested on: U251 CNS
Compound,TGI [1] [µM],TGI [2] [µM],TGI [3] [µM],TGI [4] [µM],TGI [5] [µM],TGI [6] [µM],TGI [7] [µM],TGI [8] [µM],TGI [9] [µM],TGI [10] [µM],TGI [11] [µM]
CCCC(=O)NC(Nc1cc(C)ccn1)(C(=O)OCC)C(F)(F)F (stereo unspecified),> 100,> 100,> 100,> 100,> 100,> 100,> 100,> 100,> 100,> 100,> 100
CC(C)(C)n1c(=O)n2n(c1=O)Cc1cccc3cccc(c13)C2,72.3,45.6,,69.2,39.7,73.5,> 100,62,> 100,> 100,33.9
CCN(CC)C(=O)Cn1c(-c2ccccc2)cc2ccccc21,34,> 100,> 100,77.7,> 100,> 100,> 100,> 100,31.9,> 100,> 100
O=C(c1ccccc1)c1ccc(N2C(=O)/C(=C/Cc3ccco3)N=C2c2ccccc2)c(N2C(=O)/C(=C/Cc3ccco3)N=C2c2ccccc2)c1,> 100,> 100,45.7,> 100,> 100,58.3,> 100,94.9,88.5,> 100,43.8
Cc1c2ccnc(C(=O)NCCN(C)C)c2cc2c3cc(O)ccc3n(C)c12,4.01,2.11,0.532,3.59,3.87,1.26,3.35,1.54,1.45,5.16,2.43
O=C(NC(Cl)(C(F)(F)F)C(F)(F)F)c1ccc(F)cc1,> 100,> 100,> 100,> 100,> 100,> 100,> 100,> 100,> 100,> 100,> 100
NC(CSCc1ccc(I)cc1)C(=O)O (stereo unspecified),> 100,> 100,> 100,> 100,> 100,> 100,> 100,> 100,> 100,> 100,> 100
O=[N+]([O-])c1ccc(-c2cc(O)c3nc4ccccc4n3c2)cc1,> 100,> 100,> 100,> 100,> 100,> 100,> 100,> 31.6,> 100,> 100,> 100
CN(C)CCCC1c2ccccc2Oc2ccc(C(F)(F)F)cc21 (stereo unspecified),17.7,4.97,28.1,25.2,18.9,31.6,26,19.1,21,31.3,23.9
CC(C)C1OC(N)=C(C#N)C1(C#N)C#N (stereo unspecified),> 100,58,35.5,> 100,> 100,> 100,> 100,> 100,> 100,> 100,> 100
O=C(c1cc2ccccc2[nH]1)N1C2CCC1CN(CCOC(c1ccc(F)cc1)c1ccc(F)cc1)CC2 (stereo unspecified),> 100,> 100,> 100,> 100,> 100,> 100,> 100,> 100,> 100,> 100,> 100
O=C1NC(=S)N/C1=C\c1cc2c(=O)c3ccccc3sc2s1,> 100,> 100,> 100,,> 100,> 100,> 100,> 100,> 100,> 100,> 100
O=c1ccn(CC2(CO)CCCC2)c(=O)[nH]1,> 100,> 100,> 100,> 100,> 100,> 100,> 100,> 100,> 100,,> 100
COC(=O)c1c(C)cccc1C1CN=NC12Cc1ccccc1C2=O (stereo unspecified),> 100,> 100,> 100,> 100,> 100,> 100,> 100,> 100,> 100,> 100,> 100
C=CCNC(=S)N=Nc1c(O)n(CN2CCOCC2)c2ccc([N+](=O)[O-])cc12,> 100,90.3,> 100,83.3,> 100,> 100,> 100,> 100,84.6,> 100,> 100
O=[N+]([O-])c1ccc2nc(Cl)n[n+]([O-])c2c1,25.2,30.3,1.36,19.6,49.1,5.23,28.3,26.9,20.7,> 61.5,31.3
CCOc1ccc2nc3nc(=O)[nH]c(C)c3c(NCCCN(CC)CC)c2c1,> 100,> 100,> 100,> 100,> 100,> 100,> 100,> 100,> 100,> 100,> 100
S=C(NNC1=NCCCCN1)Nc1ccc(Cl)cc1,34.5,> 100,> 100,> 100,> 100,> 100,> 100,> 100,20.5,> 100,> 100
c1cnn(C23C4C5C6C4C2C6C53)c1 (stereo unspecified),> 100,> 100,> 100,,> 100,> 100,> 100,> 100,> 100,> 100,> 100
CN(C)CCNc1nc2ccccc2c2c1CCCC2,> 100,25.6,32.3,58.3,95.1,34.7,33.6,36.1,32.4,> 100,37
C=C1CCCC2[C@](C)(CC3=C(Cl)C(=O)C=C(OC)C3=O)C(C)CC[C@]12C (stereo partly specified),9.76,23.9,10.3,14.7,7.37,4.23,16.9,14.2,12.5,13.9,11.2
CC(OC(C)(C)C)C1NC(=O)C(CCCCNC(=O)OC(C)(C)C)NC(=O)C(Cc2c[nH]c3ccccc23)NC(=O)C(Cc2ccccc2)NC(=O)[C@H]2CCC[C@H]2NC(=O)C(Cc2ccccc2)NC1=O (stereo partly specified) (cyclo([X27][ξF][ξW][ξK](Boc)[ξT](tBu)[ξF])),> 100,> 100,> 100,> 100,> 100,> 100,> 100,> 100,16.1,69.6,> 100
Cc1ccc(S(=O)(=O)CN2C(=O)C(c3ccccc3)(c3ccccc3)C23OC(c2ccc(Cl)cc2)=CC3=O)cc1 (stereo unspecified),> 10,> 10,> 10,> 10,> 10,> 10,> 10,> 10,> 10,> 10,> 10
Cc1sc2[nH]c(=O)oc(=O)c2c1C,> 100,> 100,> 100,> 100,> 100,> 100,> 100,> 100,> 100,> 100,> 100
CCCCc1ccc(Nc2nc(Cl)c3ncn(COCCOC(C)=O)c3n2)cc1,48.5,24.5,45.6,5.33,32.2,27.9,30.6,33.1,30.9,38.7,35
COc1cc(/C=C2/SC(c3ccccc3)N(Cc3ccccc3)C2=O)cc(OC)c1OC (stereo unspecified),45.9,> 100,,> 100,> 100,> 100,> 100,> 100,28,> 100,> 100
Cc1cc(O)c2c(c1O)C(=O)c1cccc(O)c1C2=O,,> 100,> 100,> 100,> 100,> 100,> 100,> 100,> 100,> 100,> 100
O=C1C(C(O)(C(F)(F)Cl)C(F)(F)Cl)CCCC1C(O)(C(F)(F)Cl)C(F)(F)Cl (stereo unspecified),> 10,> 10,,> 10,> 10,> 10,> 10,> 10,> 10,> 10,> 10
NC(=O)C(=O)c1ncn(Cc2ccccc2)c1N,> 100,> 100,> 100,,> 100,> 100,> 100,> 100,> 100,> 100,> 100
CCOP(=O)(OCC)C(C)(C)N(C)/C(F)=N/C(F)(F)F,> 100,> 100,> 100,> 100,> 100,> 100,> 100,> 100,> 100,,> 100
